Laboratory results published in ChEMBL document CHEMBL1649371, “Isoxazolidinyl polycyclic aromatic hydrocarbons as DNA-intercalating antitumor agents” (Eur J Med Chem, 2011).
One block for each molecule: values may come before it. The source made the active and inactive calls. No cut-off for these calls is given here. Numbered stars: 1 amine (or outer) side, 2 acyl side, 3 side chain; on linkers, the order of the positions; unused ones are H or OH. Bridge positions count the residues as written; N and C are the ends. Square brackets hold non-standard residues; d marks the D form. Peptide text beside a SMILES is read from it. I, II: the chains in the order shown. Actinocin(1to9) = Cc1c2oc3c(C)ccc(C(=O)[*:2])c3nc-2c(C(=O)[*:1])c(N)c1=O; NMeV = CN[C@H](C(=O)O)C(C)C; Sar = CNCC(=O)O

Assays:
Calf thymus DNA = assay: Binding affinity to calf thymus DNA by UV spectral analysis; assay type: nucleic-acid assay; conditions: Bos taurus
HeLa = assay: Cytotoxicity against human HeLa cells after 20 hrs by MTS assay; assay type: functional, cell-based
A549 [1] = assay: Cytotoxicity against human A549 cells by SRB assay; assay type: functional, cell-based
MOLT-3 = assay: Cytotoxicity against human MOLT3 cells after 20 hrs by MTS assay; assay type: functional, cell-based; conditions: MOLT-3, 20 h
THP-1 = assay: Cytotoxicity against human THP1 cells after 20 hrs by MTS assay; assay type: functional, cell-based; conditions: THP-1, 20 h
U-937 = assay: Cytotoxicity against human U937 cells after 20 hrs by MTS assay; assay type: functional, cell-based; conditions: U-937, 20 h
Vero = assay: Cytotoxicity against african green monkey Vero cells after 20 hrs by MTS assay; assay type: cell-based; conditions: Chlorocebus sabaeus
Nucleic Acid = assay: Binding affinity to Escherichia coli phiX174 RF1 DNA assessed as DNA unwinding in presence of topoisomerase 1 after 30 mins by electrophoresis; assay type: nucleic-acid assay
A549 [2] = assay: Cytotoxicity against human A549 cells assessed as decrease of viable cells at 0.5 ug/ml after 8 hrs relative to control; assay type: functional

- Kb (Calf thymus DNA): 6.8 ×10³ /M
SMILES: CN1O[C@H](CO)C[C@@H]1c1ccc2ccc3cccc4ccc1c2c34

SMILES: CN1O[C@H]2C(=O)NC(=O)[C@H]2[C@@H]1c1ccc2ccc3cccc4ccc1c2c34 (racemic)
- IC50 (HeLa): 135 µM
- IC50 (A549 [1]): 83 µM
- IC50 (MOLT-3): 95 µM
- IC50 (THP-1): 102 µM
- IC50 (U-937): 130 µM
- IC50 (Vero): 150 µM

SMILES: CN1O[C@@H]2C(=O)NC(=O)[C@@H]2[C@@H]1c1ccc2ccc3cccc4ccc1c2c34 (racemic)
- IC50 (HeLa): 284 µM
- IC50 (A549 [1]): 328 µM
- IC50 (MOLT-3): 415 µM
- IC50 (THP-1): 399 µM
- IC50 (U-937): > 500 µM
- IC50 (Vero): > 500 µM

SMILES: NC[C@@H]1C[C@H](c2cc3ccccc3c3ccccc23)N(Cc2ccccc2)O1 (racemic)
- IC50 (HeLa): 50 µM
- IC50 (A549 [1]): 32 µM
- IC50 (MOLT-3): 43 µM
- IC50 (THP-1): 55 µM
- IC50 (U-937): 154 µM
- IC50 (Vero): 132 µM

- Activity (Nucleic Acid): Active
- Kb (Calf thymus DNA): 9.6 ×10⁴ /M
SMILES: CN1O[C@H](CN)C[C@@H]1c1ccc2ccc3cccc4ccc1c2c34 (racemic)
- IC50 (HeLa): 15 µM
- IC50 (A549 [1]): 9 µM
- IC50 (MOLT-3): 12 µM
- IC50 (THP-1): 19 µM
- IC50 (U-937): 88 µM
- IC50 (Vero): 102 µM

SMILES: NC[C@H]1C[C@H](c2cc3ccccc3c3ccccc23)N(Cc2ccccc2)O1 (racemic)
- IC50 (HeLa): 45 µM
- IC50 (A549 [1]): 35 µM
- IC50 (MOLT-3): 50 µM
- IC50 (THP-1): 61 µM
- IC50 (U-937): 112 µM
- IC50 (Vero): 140 µM

SMILES: CN1O[C@@H](CN)C[C@@H]1c1ccc2ccc3cccc4ccc1c2c34 (racemic)
- IC50 (HeLa): 15 µM
- IC50 (A549 [1]): 11 µM
- IC50 (MOLT-3): 17 µM
- IC50 (THP-1): 18 µM
- IC50 (U-937): 80 µM
- IC50 (Vero): 110 µM

SMILES: Cc1c2oc3c(C)ccc(C(=O)N[C@@H]4C(=O)N[C@H](C(C)C)C(=O)N5CCC[C@H]5C(=O)N(C)CC(=O)N(C)[C@@H](C(C)C)C(=O)O[C@@H]4C)c3nc-2c(C(=O)N[C@@H]2C(=O)N[C@H](C(C)C)C(=O)N3CCC[C@H]3C(=O)N(C)CC(=O)N(C)[C@@H](C(C)C)C(=O)O[C@@H]2C)c(N)c1=O [DACTINOMYCIN] (I: T[dV]P[Sar][NMeV] / II: T[dV]P[Sar][NMeV]; ester I:1-I:C, II:1-II:C; linker I:N-II:N via Actinocin(1to9))
- IC50 (MOLT-3): ≤ 1 µM
- Activity (A549 [2]): 40%
